Data on five compounds can be found in US10238677B2, “Treatment of filarial diseases” (AbbVie Inc., priority 2015, dated 2019).

“And” between values parts separate entries of the source, which are not always exact repeats. Equal entries are not always repeated.

Experiment [1] deals with Wolbachia pipientis (Wolbachia strain wAlbB) in C6/36 Aedes albopictus cell line. As to the kind of experiment: In vitro anti-Wolbachia cell-based screening assay. The following applies: Table 1A, anti-Wolbachia activity, 7 days incubation. Here is the method:
A C6/36 Aedes albopictus cell line infected with Wolbachia pipientis (Wolbachia strain wAlbB) derived from Aa23 A. albopictus cell line (O'Neill et al., 1997; Insect Mol Biol; Turner et al., (2006) J. Immunol. 7:1240-1249) was used to screen compounds. Cells were cultured in Leibovitz's L15 +L-glutamine supplemented with heat-inactivated Foetal Calf Serum (HI-FCS), non-essential amino acids and tryptose phosphate broth. Culture medium was filter-sterilized through a 0.2 μm filter and stored at 4° C. Compounds were provided as 10 mM stocks in DMSO, diluted to 50 μM working stock to give final concentration of 5 μM on the test plate. Concentrated stocks were frozen at −20° C.
Prior to use in the screening assay, cell cultures were sub-passaged (6 days prior) to provide ˜90% confluent cells on Day 0 of screening assay. On Day 0 (assay set-up), the medium was removed from the stock culture flask and replaced with fresh medium. The cells were detached by scraping and cell density was calculated using an automated cell counter. The cells were then diluted at working density and aliquoted at 90 μl to each well of a Cell Carrier 384 well plate (Perkin Elmer). Cell plates were incubated at 26° C.
Control solution (DMSO-medium) was dispensed at 10 μl per well for “untreated” wells. Test solution (Drug-DMSO) was also dispensed at 10 μl (from working plate) per well for “treated” wells. The plates were incubated at 26° C., inside plastic wallet in incubator, for 7 days.
On Day 7, 25 μl of staining medium/dye (SYTO 11, Life Technologies) was added to each sample well and allowed to stain for 15 minutes in the dark. All the medium was removed from each sample well without disturbing the cells and replaced with 100 μl of fresh medium. Plates were imaged on the Operetta High Content Imaging system (Perkin Elmer) and analyzed using texture analysis through Harmony software (Perkin Elmer). The cell-based screen and analysis are described in detail in Clare et al. (2014) J Biomol Screen.

Experiment [2] relates to Wolbachia in Litomosoides sigmodontis larvae. Kind of experiment: Larval Litomosoides sigmodontis mouse model, Wolbachia ftsZ qPCR. It counts as in vivo, BALB/c mice. The following applies: vs vehicle control. The method, then: In this mouse model of filariasis (Hoerauf A, et al. (1999) Journal of Clinical Investigation 103(1):11-18), BALB/c mice (6-8 week old) were infected via natural larvae transmission, through the bite of infected tropical mites (Ornithonyssus bacoti), and treatment started on the day following infection. Anti-Wolbachia efficacy was measured by quantitative PCR analysis, using genomic DNA extracted from larvae, of the Wolbachia ftsZ gene, and expressed as a reduction in Wolbachia load in comparison to the vehicle control group. […] Thus, tylosin A effectively cleared Wolbachia from filarial larvae (Litomosoides sigmodontis) in a mouse model of filariasis when delivered parenterally (intraperitoneally), to a similar extent to doxycycline, with a shorter dosing regimen.
For orientation: In qPCR the cycle at which signal appears reflects the starting amount.

Experiment [3] concerns Wolbachia in Brugia malayi larvae. As to the kind of experiment: Larval Brugia malayi mouse model, Wolbachia wsp qPCR. To be noted: vs median vehicle control. It counts as in vivo, BALB/c IL4Rα−/− mice. The source says:
[…] At 14 days post-infection, larvae were recovered from the peritoneal cavity, counted, and length measured. Genomic DNA was extracted from individual worms (10/group) and quantification of the Wolbachia surface protein (wBm-wsp) gene copy numbers performed by quantitative PCR.
Treatment dose (mg/kg) shown in parentheses and duration stated in days (d). Abbreviations: DOX (doxycycline), bid (twice daily), qd (once daily), PO (oral), […]. Data in Table 2 are expressed as a reduction in Wolbachia load in comparison to the vehicle control group.
[…] […] Treatment dose (mg/kg) shown in parentheses and duration stated in days (d). Abbreviations: DOX (doxycycline), qd (once daily).

Experiment [4] deals with Wolbachia in adult Brugia malayi. Kind of experiment: Adult Brugia malayi mouse model, Wolbachia wsp qPCR. Type of experiment: in vivo, BALB/c CCR3−/− mice. The source says:
In an adult Brugia malayi mouse model treatment groups (BALB/c CCR3−/−mice, 6-8 week old) received compounds by oral delivery for 7-28 days beginning at 6-10 weeks post-infection intraperitoneal with Brugia malayi third-stage larvae. Following treatment, at 12 weeks post-infection, adult worms and released microfilariae were recovered from the peritoneal cavity, counted and staged for sex. Genomic DNA was extracted from individual adult worms (10/group) and quantification of the Wolbachia surface protein (wBm-wsp) performed by quantitative PCR.
Treatment dose (mg/kg/day) shown in parentheses and duration stated in days (d). MIN (minocycline), bid (twice daily), qd (once daily). Data in Table 4 are expressed as a reduction in Wolbachia load in comparison to the vehicle control group.
Treatment dose (mg/kg/day) shown in parentheses and duration stated in days (d). MIN (minocycline), bid (twice daily), qd (once daily).

Experiment [5] has the same test system. As to the kind of experiment: Adult Brugia malayi jird model, Wolbachia load. It counts as in vivo, Mongolian jirds (Meriones unguiculatus). To be noted: Table 6; 200 mg/kg qd oral 21 d; vs median vehicle control. Here is the method: (§1) In this model of adult filarial (macrofilariae) infection, Mongolian jirds (Meriones unguiculatus) were infected intraperitoneally with Brugia malayi third-stage larvae (Ash and Riley, (1970) J Parasitol. 56(5):969-73). Infected jirds were treated at +12-20 weeks post-infection for periods up to 6 weeks. Jirds were necropsied for worm recoveries. Adult worms were staged for sex and motile released microfilariae were counted. Genomic DNA was extracted from individual worms (10/group) and quantification of the Wolbachia surface protein (wBm-wsp) and Brugia malayi glutathione S-transferase (Bm-gst) gene copy numbers performed by quantitative PCR, and expressed as a reduction in Wolbachia load in comparison to the vehicle control group.
(§2) Treatment dose (mg/kg/day) shown in parentheses and duration stated in days (d). DOX (doxycycline), qd (once daily).

The subject of experiment [6] is Brugia malayi microfilariae. As to the kind of experiment: Adult Brugia malayi jird model, motile peritoneal microfilariae load. Type of experiment: in vivo, Mongolian jirds (Meriones unguiculatus). The following applies: Table 7, 200 mg/kg qd oral 21 d. The method, then:
as §1, §2

For experiment [7], the system named is Wolbachia in adult male Onchocerca ochengi. Kind of experiment: Adult Onchocerca ochengi mouse model, Wolbachia:gst qPCR. It counts as in vivo, CB.17 SCID (BALB/c congenic) mice. The following applies: Table 8; 25 mg/kg bid oral 28 d; vs median vehicle control. The method, then:
In this model, adult male Onchocerca ochengi (closest relative species to the human parasite causing river blindness, Onchocerca volvulus) are derived from cattle natural hosts and surgically implanted into the peritoneal cavity of CB.17 SCID (BALB/c congenic) mice under anaesthesia (Halliday et al Parasit. Vectors 2014 7:472). After 3 days following surgery, mice were treated by oral gavage for periods up to 4 weeks. Mice were necropsied for worm recoveries 6 weeks after start of treatment. Genomic DNA was extracted from individual worms (n=10/group) and quantification of the Wolbachia surface protein (wBm-wsp) and Onchocerca glutathione S-transferase (Ov-gst) gene copy numbers performed by quantitative PCR. Data is expressed as a reduction in Wolbachia:gst ratios in comparison to the vehicle control group.
Treatment dose (mg/kg/day) shown in parentheses and duration stated in days (d). DOX (doxycycline), qd (once daily) bid (twice daily).

The test system of a further experiment is Loa loa microfilariae. Kind of experiment: Loa loa microfilariae ex vivo counter-screen. Type of experiment: cell-based. To be noted: for Motility (mean % vs baseline) / Survival (%): 64 μg/ml. The source says: This ex vivo assay is used to assess direct Loa loa microfilaricidal effects of drug compounds. Bloodborne Loa loa microfilariae are generated from experimental infections of splenectomised baboons with the human stain of L. loa (Orihel et al, Trop Med Parasitol, 1985. 36: p.215). L. loa microfilariae were purified from venous blood samples by Percoll gradient centrifugation. Loa loa microfilariae were adjusted to a density of 0.5×10^4/ml and plated into 96-well plates in Dulbecco's Modified Eagle Medium (DMEM) containing 10% Foetal Calf Serum (FCS). Triplicate wells of Loa loa microfilariae were exposed to either ivermectin (64 μg/ml: positive control), compound 10 (0.018 and 0.18 μg/ml), compound 19 (0.11 and 1.11 μg/ml) or 0.1% DMSO vehicle control. Dose levels of compound 10 and compound 19 were matched to predictive Cmax and 10× Cmax human plasma concentrations based on PK-PD modeling. L. loa were cultured at 37° C./5% CO2 for +7 days and monitored daily with a semi-quantitative score applied to individual mf motility.

Setting [8] is: Table 2, 50 mg/kg qd PO 14 d, 50 mg/kg.

With `CC[C@H]1OC(=O)C[C@@H](O)[C@H](C)[C@@H](O[C@@H]2O[C@H](C)[C@@H](O[C@H]3C[C@@](C)(O)[C@@H](O)[C@H](C)O3)[C@H](N(C)C)[C@H]2O)[C@@H](CC=O)C[C@@H](C)C(=O)/C=C/C(C)=C/[C@@H]1CO[C@@H]1O[C@H](C)[C@@H](O)[C@@H](OC)[C@H]1OC` [Tylosin A, 2-((4R,5S,6S,7R,9R,11E,13E,15R,16R)-6-(((2R,3R,4R,5S,6R)-5-(((2S,4R,5S,6S)-4,5-dihydroxy-4,6-dimethyltetrahydro-2H-pyran-2-yl)oxy)-4-(dimethylamino)-3-hydroxy-6-methyltetrahydro-2H-pyran-2-yl)oxy)-16-ethyl-4-hydroxy-15-((((2R,3R,4R,5R,6R)-5-hydroxy-3,4-dimethoxy-6-methyltetrahydro-2H-pyran-2-yl)oxy)methyl)-5,9,13-trimethyl-2,10-dioxooxacyclohexadeca-11,13-dien-7-yl)acetaldehyde], the EC50 (as a rule, the concentration giving half of the maximal effect) is 36 nM in experiment [1] (C6/36, 168 h); 24 nM and 26 nM in experiment [1]. Further, the Wolbachia reduction in experiment [2] (7 days treatment, oral dosing) is recorded as 21.9%; in experiment [2] (7 days treatment, parenteral (intraperitoneal) dosing), 91.7%. Moreover, the “% Wolbachia reduction” value is 99.9% in experiment [3] (Table 2, 50 mg/kg qd IP 14 d, 50 mg/kg); 99.9% in experiment [3] (Table 2, 50 mg/kg qd IP 14 d, listed as TYL A, 50 mg/kg); 50.4% in experiment [3] (setting [8]); 50.4% in experiment [3] (Table 2, 50 mg/kg qd PO 14 d, listed as TYL A, 50 mg/kg); 0% in experiment [4] (Table 4, 50 mg/kg qd oral 14 d, vs median vehicle control).
In experiment [1], `CC[C@H]1OC(=O)C[C@@H](O)[C@H](C)[C@@H](O[C@@H]2O[C@H](C)[C@@H](O)[C@H](N(C)C)[C@H]2O)[C@@H](CC=O)C[C@@H](C)C(=O)/C=C/C(C)=C/[C@@H]1CO[C@@H]1O[C@H](C)[C@@H](O)[C@@H](OC)[C@H]1OC` [Tylosin B, desmycosin] gave an EC50 of 88 nM.
For `C[C@H]1c2cccc(O)c2C(=O)C2=C(O)[C@]3(O)C(=O)C(C(N)=O)=C(O)[C@@H](N(C)C)[C@@H]3[C@@H](O)[C@@H]21` [doxycycline], in experiment [2] (50 mg/kg/day for 14 days), the Wolbachia reduction was 99.9%. The “% Wolbachia reduction” value was 88.7% in experiment [3] (Table 2, 50 mg/kg qd PO 7 d); 98.3% in experiment [3] (setting [8]); 98.3% in experiment [3] (Table 2, 50 mg/kg qd PO 14 d, listed as DOX, 50 mg/kg); 77.4% in experiment [3] (Table 3, 50 mg/kg qd oral 7 d, 50 mg/kg); 77.4% in experiment [3] (Table 3, 50 mg/kg qd oral 7 d, listed as DOX, 50 mg/kg); 99.3% in experiment [3] (Table 3, 50 mg/kg qd oral 14 d, 50 mg/kg). Also, the “% Wolbachia reduction” value in experiment [3] (Table 3, 50 mg/kg qd oral 14 d, listed as DOX, 50 mg/kg) is listed as 99.3%; in experiment [5] it was 99.1%; in experiment [7], 99.8%. In addition, the “% reduction in microfilariae” value in experiment [6] is 90.5%.
With `CN(C)c1ccc(O)c2c1C[C@H]1C[C@H]3[C@H](N(C)C)C(O)=C(C(N)=O)C(=O)[C@@]3(O)C(O)=C1C2=O` [minocycline], the “% Wolbachia reduction” value amounted to 83.8% in experiment [4] (Table 4, 25 mg/kg bid oral 28 d, vs median vehicle control, 25 mg/kg); 83.8% in experiment [4] (Table 4, 25 mg/kg bid oral 28 d, vs median vehicle control, listed as MIN, 25 mg/kg); 95.5% in experiment [4] (Table 5 dose escalation study, 25 mg/kg bid oral 28 d); 99.7% in experiment [7].
Consider ivermectin, for which, in the experiment with Loa loa microfilariae (exposure time 2 days), the “Motility (mean % vs baseline)” value is reported as 5.71% and the “Survival (%)” value is 100%. In addition, in the experiment with Loa loa microfilariae (exposure time 7 days), the “Motility (mean % vs baseline)” value amounted to 0% and the “Survival (%)” value was determined as 0%. Moreover, the “Effect on Loa loa microfilariae motility (in words)” value with Loa loa microfilariae (ex vivo culture, period of 7 days) is listed as “completely immotile”. Moreover, in the experiment on Loa loa microfilariae (in +2 days), the Reduction in motility was > 90%.
